Assay results from patent US8680047B2, “Fas peptide mimetics and uses thereof” (The Trustees of the University of Pennsylvania, priority 2002, dated 2014).
Positions of bridges follow the written chain, without caps; N, C: chain ends. Residues, ends and D or L forms follow the SMILES beside them. No end group written: not given here.

Legend:
FasL = biological target: T1, FasL (Homo sapiens, UniProt P48023); experiment: Surface plasmon resonance (BIAcore) analysis, immobilized FasL-Flag; type: binding; conditions: FasL-Flag immobilized on sensor chip, 25° C.
T1 construct: Flag-tagged soluble human Fas ligand (FasL-Flag); purchased Kamiya Biomedical (Seattle, Wash.)
T1 sequence (P48023 130-281 limits assumed): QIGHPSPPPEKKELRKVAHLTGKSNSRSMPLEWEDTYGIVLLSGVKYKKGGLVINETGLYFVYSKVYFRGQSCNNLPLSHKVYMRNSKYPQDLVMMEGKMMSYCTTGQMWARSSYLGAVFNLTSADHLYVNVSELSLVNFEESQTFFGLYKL
Description: The kinetics of binding of Kp7-6, which mediated the best inhibitory activity to FasL, was performed using surface plasmon resonance (BIAcore™) analysis. […] The koff value is considered as an important indicator in the development of therapeutics with biological activity (Benveniste, M. et al. Br J Pharmacol 104, 207-221 (1991); Yiallouros, I. et al. Biochem J 331, 375-379 (1998)), and generally correlates with potent biological effects. (Moosmayer, D. et al. J Interferon Cytokine Res 16, 471-477 (1996)). […] (Berezov, A. et al. J Med Chem 44, 2565-2574 (2001)).
To assess the specificity of Kp7-6 binding interaction, Fas, FasL and TNFα were immobilized on a sensor chip. Kp7-6 bound to FasL but not to TNFα, which indicates Kp7-6 bound to FasL specifically (FIG. 3B). […] (Naismith, J. H. et al. Structure 4, 1251-1262 (1996)).
Biosensor analysis. All experiments were carried out on a BIAcore 3000 instrument (Biacore AG, Uppsala, Sweden) at 25° C. using PBS, pH 7.4, containing 0.005% surfactant P20 (Biacore AG) as the running buffer. FasL-Flag, Fas-Fc or TNFRI-Fc was immobilized on research-grade CM5 sensor chips (Biacore AG) using standard N-ethyl-N-dimethylaminopropyl carbodiimid/N-hydroxysuccinimide coupling. […] Data were analyzed with the BIA evaluation 3.0 software (Biacore AG). […]

[1] = test system: FasL-sensitive Jurkat cells; experiment: FasL-induced cytotoxicity assay in Jurkat cells ([3H]-thymidine incorporation); type: cell-based, human; conditions: for inhibition of Fas-mediated cytotoxicity: Jurkat cells stimulated with soluble FasL-Flag, various concentrations of mimetic
Description: To evaluate the effect of mimetics on Fas-mediated cytotoxicity, FasL-sensitive Jurkat cells were stimulated with soluble FasL-Flag fusion protein in the presence or absence of various concentrations of mimetics. The inhibitory effects of mimetics on Fas-mediated cytotoxicity were consistent with the results of the FasL-binding inhibition (FIG. 4). […] A concentration of 1 mM Kp7-6 protected more than 90% cells from Fas-mediated cytotoxicity (FIG. 4). […] Large dose of Kp7-6 was used in this experiment for better signal-to-noise ratio. To determine if mimetics derived from other binding sites would potentially be able to interact synergistically to block the Kp7 surface, Kp7 was used in combination with mimetics.
Cytotoxicity assay. Twenty microliters of Jurkat cells at 1×10^5 cells/ml were plated in 96-well U-bottom plates. FasL-Flag (120 ng/ml in culture medium) was preincubated with equal volume of peptide sample in PBS for 1 h at 37° C., and 20 μl of mixture was added to each well. After an incubation period of 24 h, each culture was pulsed with 1 μCi of [^3H]-thymidine for 24 h before harvesting on glass fiber filters. Incorporation of the ^3H-thymidine obtained with culture medium alone and with 30 ng/ml of FasL was used as reference for 100% survival and 0% survival, respectively. Survival (%) by several doses of peptides was plotted. Incorporation of the radioactive label was measured by liquid scintillation counting (Wallac, Finland) and expressed as the arithmetic mean counts per minute (cpm) of triplicate cultures.

[2] = test system: Con A-induced hepatitis model; experiment: Con A-induced hepatitis model, serum transaminase activity; type: in vivo, C57BL/6 mice; conditions: IP pretreatment 30 min before Con A iv
Description: The biological activity of mimetic Kp7-6 was measured in vivo. FasL induced apoptosis is one of the primary and dominant pathways by which liver cells undergo apoptosis under various conditions such as viral infection, drug toxicity and other lesions. (Kakinuma, C. et al. Toxicol Pathol 27, 412-420 (1999); Famularo, G., et al. Med Hypotheses 53, 50-62 (1999); Gantner et al. supra). […] (Zhang, H. et al. Nat Biotechnol 18, 862-867 (2000); Song, E. et al. Nat Med (2003)). The antagonistic effect of Kp7-6 in vivo was tested using the Con A-induced hepatitis model. C57BL/6 mice were pretreated intraperitoneally (IP) with anti-FasL monoclonal antibody, Fas mimetic peptides or saline. After 30 min, animals were challenged intravenously with Con A or saline. The induction of liver damage and inflammatory hepatitis was evaluated by measuring the serum activities of alanine aminotransferase (ALT) and aspartate aminotransferase (AST) 12 h after Con A treatment.
Administration of Con A and Measurement of Serum Transaminase Activity. […]
Blood samples were collected from mice at 12 h after Con A injection, and the serum was taken by centrifugation. Serum activities of alanine aminotransferase (ALT) and aspartate aminotransferase (AST) were measured by Lippi-Guidi's method (Iatrozyme TA-LQ: Dia-Iatron Inc., Tokyo, Japan). […]

Compound	inhibition of Fas-mediated cytotoxicity [1]	block of Con A-induced hepatic injury [2]	further results
N[C@@H](Cc1ccc(O)cc1)C(=O)N[C@H]1CSSC[C@@H](C(=O)N[C@@H](Cc2ccc(O)cc2)C(=O)O)NC(=O)[C@H](Cc2ccccc2)NC(=O)[C@H](Cc2c[nH]cn2)NC(=O)[C@H](CCC(=O)O)NC(=O)[C@H](CC(=O)O)NC1=O [Kp7-6, YCDEHFCY] (H-YCDEHFCY-OH; disulfide 2-7; N-terminus and C-terminus assumed)	dose-dependent inhibitory activity	–	koff (FasL; read-out: koff rate constant): 0.000765 s⁻¹; kon (FasL; read-out: kon rate constant): 68.5 M⁻¹ s⁻¹; cells protected from Fas-mediated cytotoxicity ([1]; 1 mM mimetic, Jurkat cells, FasL-Flag): more than 90%
YCDEHGLCY (disulfide 2-8 (inferred)) [Kp7-7, exocyclic mimetic derived from Fas Kp7 loop]	–	protection of mice against Con A induced liver injury	–
YCDEQFCY (disulfide 2-7 (inferred)) [Kp7-10, exocyclic mimetic derived from Fas Kp7 loop]	dose-dependent inhibition	–	synergy in combination with members of the Kp4 mimetics ([1]; Fas-mediated cytotoxicity, data not shown): Neither Kp7-6 nor Kp7-10 used in combination with members of the Kp4 mimetics showed any significant synergy
YCNSTVCY (disulfide 2-7 (inferred)) [Kp1-1, exocyclic mimetic derived from Fas Kp1 loop]	–	did not block the hepatic injury	–
